pEC50, pKi: −log10 of the molar value.
Experiments:
[1] = biological target: Nicotinic acetylcholine receptor alpha-4/beta-2 (Mus musculus) (UniProt Q9ERK7+Q8R493); experiment: Activity at alpha4beta2*nAChR in mouse striatal synaptosomes assessed as alpha-conotoxic MII-resistant DA release relative to control; assay type: subcellular; details: Brain
[2] = biological target: T1, Nicotinic acetylcholine receptor alpha-4/beta-2 (Mus musculus, UniProt Q8R493+Q9ERK7); experiment: Displacement of [125I]epibatidine from alpha4beta2* nAChR in C57BL/6J mouse cortical membrane by gamma counting; assay type: cell membranes
T1 sequence (Q9ERK7 whole entry): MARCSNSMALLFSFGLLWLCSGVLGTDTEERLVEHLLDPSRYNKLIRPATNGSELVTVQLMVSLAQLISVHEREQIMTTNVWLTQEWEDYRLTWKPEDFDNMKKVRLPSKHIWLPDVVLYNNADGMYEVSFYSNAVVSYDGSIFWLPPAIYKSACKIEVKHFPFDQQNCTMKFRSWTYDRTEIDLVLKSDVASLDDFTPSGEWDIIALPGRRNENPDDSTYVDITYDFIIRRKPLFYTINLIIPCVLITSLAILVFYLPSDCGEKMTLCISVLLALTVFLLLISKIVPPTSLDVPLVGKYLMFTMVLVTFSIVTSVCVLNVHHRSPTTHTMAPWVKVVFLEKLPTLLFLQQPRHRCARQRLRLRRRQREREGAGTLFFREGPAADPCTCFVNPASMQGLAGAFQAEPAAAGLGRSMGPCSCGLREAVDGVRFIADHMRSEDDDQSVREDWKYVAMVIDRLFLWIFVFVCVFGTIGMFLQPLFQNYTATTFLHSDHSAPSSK
T1 sequence (Q8R493 whole entry): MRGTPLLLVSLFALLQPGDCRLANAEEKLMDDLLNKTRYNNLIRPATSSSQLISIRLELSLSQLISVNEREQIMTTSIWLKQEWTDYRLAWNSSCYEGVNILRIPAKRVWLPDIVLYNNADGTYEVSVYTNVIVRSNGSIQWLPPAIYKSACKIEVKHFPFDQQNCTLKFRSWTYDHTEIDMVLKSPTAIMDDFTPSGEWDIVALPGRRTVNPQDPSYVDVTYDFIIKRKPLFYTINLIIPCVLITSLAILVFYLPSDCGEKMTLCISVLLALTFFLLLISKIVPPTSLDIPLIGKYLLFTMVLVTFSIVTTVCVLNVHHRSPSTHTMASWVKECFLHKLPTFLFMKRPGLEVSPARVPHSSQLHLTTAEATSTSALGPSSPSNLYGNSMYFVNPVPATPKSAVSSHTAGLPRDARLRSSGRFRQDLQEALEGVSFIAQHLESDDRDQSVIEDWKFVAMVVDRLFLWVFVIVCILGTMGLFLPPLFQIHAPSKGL

[3] = Selectivity ratio, ratio of EC50 for alpha3beta4* nAChR in mouse to EC50 for alpha4beta2*nAChR in mouse
[4] = biological target: Neuronal acetylcholine receptor subunit alpha-4/alpha-6/beta-2/beta-3 (Mus musculus) (UniProt Q9ERK7+O70174+Q9R0W9+Q8BMN3); experiment: Activity at alpha6alpha4beta3beta2 nAChR in mouse striatal synaptosomes assessed as alpha-conotoxic […] DA release relative to control; assay type: subcellular; details: Brain
[5] = biological target: T1, Nicotinic acetylcholine receptor alpha-4/beta-2; experiment: Activity at alpha4beta2*nAChR in mouse striatal synaptosomes assessed as alpha-conotoxic MII-resistant DA release; assay type: subcellular, Brain
[6] = biological target: T2, Neuronal acetylcholine receptor subunit alpha-3/beta-4 (Mus musculus, UniProt Q8R493+Q8R4G9); experiment: Activity at alpha3beta4* nAChR in mouse interpeduncular nucleus assessed as [3H]ACh release by scintillation counting relative to control; assay type: tissue-based
T2 sequence (Q8R493 whole entry): as above
T2 sequence (Q8R4G9 whole entry): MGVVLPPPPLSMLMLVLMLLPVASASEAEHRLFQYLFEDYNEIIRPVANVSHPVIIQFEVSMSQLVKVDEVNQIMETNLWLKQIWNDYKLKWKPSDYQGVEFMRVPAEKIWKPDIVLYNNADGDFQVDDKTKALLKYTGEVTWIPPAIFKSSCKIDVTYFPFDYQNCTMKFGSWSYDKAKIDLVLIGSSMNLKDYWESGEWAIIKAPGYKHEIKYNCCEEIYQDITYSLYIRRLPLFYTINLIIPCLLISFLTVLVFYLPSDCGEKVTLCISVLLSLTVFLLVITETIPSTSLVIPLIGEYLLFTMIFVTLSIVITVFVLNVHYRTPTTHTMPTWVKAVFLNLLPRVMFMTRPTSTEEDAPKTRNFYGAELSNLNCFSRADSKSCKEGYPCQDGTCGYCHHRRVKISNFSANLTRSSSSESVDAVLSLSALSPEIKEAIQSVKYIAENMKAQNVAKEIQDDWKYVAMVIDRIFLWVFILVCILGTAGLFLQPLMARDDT

[7] = biological target: Neuronal acetylcholine receptor subunit alpha-7 (Mus musculus, UniProt P49582); experiment: Displacement of [125I]alpha-bungarotoxin from alpha7 nAChR in C57BL/6J mouse hippocampal membrane; assay type: tissue-based, Hippocampus
Chain of Neuronal acetylcholine receptor subunit alpha-7 (P49582 whole entry): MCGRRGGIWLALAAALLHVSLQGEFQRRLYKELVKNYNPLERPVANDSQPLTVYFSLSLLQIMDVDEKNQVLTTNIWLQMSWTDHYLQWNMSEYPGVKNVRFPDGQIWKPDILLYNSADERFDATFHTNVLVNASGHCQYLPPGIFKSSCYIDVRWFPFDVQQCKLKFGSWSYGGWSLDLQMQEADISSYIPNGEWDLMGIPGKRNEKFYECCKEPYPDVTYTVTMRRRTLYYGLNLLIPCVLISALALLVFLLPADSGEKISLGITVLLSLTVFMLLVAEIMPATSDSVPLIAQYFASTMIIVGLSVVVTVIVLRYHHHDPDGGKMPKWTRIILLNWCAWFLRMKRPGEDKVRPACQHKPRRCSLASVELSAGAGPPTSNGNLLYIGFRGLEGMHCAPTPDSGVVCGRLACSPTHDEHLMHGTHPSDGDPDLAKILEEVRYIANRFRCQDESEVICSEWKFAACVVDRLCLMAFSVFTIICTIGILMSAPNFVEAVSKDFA

[8] = biological target: T2, Neuronal acetylcholine receptor subunit alpha-3/beta-4; experiment: Activity at alpha3beta4* nAChR in mouse interpeduncular nucleus assessed as [3H]ACh release by scintillation counting; assay type: tissue-based
[9] = biological target: Neuronal acetylcholine receptor subunit alpha-4/alpha-6/beta-2/beta-3 (Mus musculus, UniProt O70174+Q8BMN3+Q9ERK7+Q9R0W9); experiment: (§1) Activity at alpha6alpha4beta3beta2 nAChR in mouse striatal synaptosomes assessed as alpha-conotoxic […] DA release; assay type: subcellular, Brain
Chain of Neuronal acetylcholine receptor subunit alpha-4/alpha-6/beta-2/beta-3 (Mus musculus, UniProt O70174+Q8BMN3+Q9ERK7+Q9R0W9) (Q9ERK7 whole entry): as the sequence (Q9ERK7 whole entry) above
Chain of Neuronal acetylcholine receptor subunit alpha-4/alpha-6/beta-2/beta-3 (Mus musculus, UniProt O70174+Q8BMN3+Q9ERK7+Q9R0W9) (O70174 whole entry): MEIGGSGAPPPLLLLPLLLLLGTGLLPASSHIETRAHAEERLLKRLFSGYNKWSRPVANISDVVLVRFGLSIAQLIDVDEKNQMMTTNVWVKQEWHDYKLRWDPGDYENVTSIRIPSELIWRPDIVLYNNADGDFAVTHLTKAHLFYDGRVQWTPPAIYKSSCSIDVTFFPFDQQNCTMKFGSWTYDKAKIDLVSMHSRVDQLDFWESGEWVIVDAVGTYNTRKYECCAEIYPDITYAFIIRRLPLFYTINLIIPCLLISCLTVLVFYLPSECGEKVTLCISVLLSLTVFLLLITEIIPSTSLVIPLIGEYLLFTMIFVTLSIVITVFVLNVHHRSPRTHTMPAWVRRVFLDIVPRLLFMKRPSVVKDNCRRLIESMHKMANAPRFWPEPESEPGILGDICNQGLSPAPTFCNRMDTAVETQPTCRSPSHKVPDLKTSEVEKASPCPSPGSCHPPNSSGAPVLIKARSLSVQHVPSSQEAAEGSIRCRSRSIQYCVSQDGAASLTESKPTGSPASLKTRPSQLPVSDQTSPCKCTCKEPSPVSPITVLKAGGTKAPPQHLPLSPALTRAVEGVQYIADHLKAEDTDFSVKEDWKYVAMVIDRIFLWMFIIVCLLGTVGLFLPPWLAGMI
Chain of Neuronal acetylcholine receptor subunit alpha-4/alpha-6/beta-2/beta-3 (Mus musculus, UniProt O70174+Q8BMN3+Q9ERK7+Q9R0W9) (Q9R0W9 whole entry): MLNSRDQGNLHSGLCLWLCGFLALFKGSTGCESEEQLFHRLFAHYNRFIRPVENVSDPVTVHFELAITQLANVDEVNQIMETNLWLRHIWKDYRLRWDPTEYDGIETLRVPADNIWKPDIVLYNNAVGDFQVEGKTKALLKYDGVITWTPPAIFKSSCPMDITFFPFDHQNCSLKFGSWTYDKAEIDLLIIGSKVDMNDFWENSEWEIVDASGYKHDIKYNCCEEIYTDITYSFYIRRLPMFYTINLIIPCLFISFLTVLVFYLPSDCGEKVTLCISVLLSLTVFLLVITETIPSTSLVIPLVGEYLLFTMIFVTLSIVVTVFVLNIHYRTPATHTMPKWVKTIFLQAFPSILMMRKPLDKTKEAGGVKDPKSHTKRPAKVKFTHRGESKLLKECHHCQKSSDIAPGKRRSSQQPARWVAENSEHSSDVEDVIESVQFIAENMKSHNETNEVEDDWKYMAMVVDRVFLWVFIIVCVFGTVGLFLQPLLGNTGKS
Chain of Neuronal acetylcholine receptor subunit alpha-4/alpha-6/beta-2/beta-3 (Mus musculus, UniProt O70174+Q8BMN3+Q9ERK7+Q9R0W9) (Q8BMN3 whole entry): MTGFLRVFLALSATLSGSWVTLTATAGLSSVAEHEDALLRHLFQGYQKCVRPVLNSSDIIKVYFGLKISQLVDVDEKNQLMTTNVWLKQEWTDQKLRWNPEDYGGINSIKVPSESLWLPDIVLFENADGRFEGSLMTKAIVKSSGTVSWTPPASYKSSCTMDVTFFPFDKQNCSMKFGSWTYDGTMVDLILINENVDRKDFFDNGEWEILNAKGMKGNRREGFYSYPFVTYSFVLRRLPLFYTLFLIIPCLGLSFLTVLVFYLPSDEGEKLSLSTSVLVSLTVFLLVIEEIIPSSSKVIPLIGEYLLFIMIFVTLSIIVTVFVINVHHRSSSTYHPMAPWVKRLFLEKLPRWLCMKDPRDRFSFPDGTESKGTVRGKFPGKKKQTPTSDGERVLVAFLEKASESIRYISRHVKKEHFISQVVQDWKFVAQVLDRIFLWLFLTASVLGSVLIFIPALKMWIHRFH

[10] = biological target: T3, Neuronal acetylcholine receptor subunit alpha-6/beta-2 (Mus musculus, UniProt Q9ERK7+Q9R0W9); experiment: Displacement of [125I]-alpha-Conotoxin MII from alpha6beta2* nAChR in mouse olfactory tubercles, striatum and superior coliculus; assay type: tissue-based, Olfactory tubercle
T3 sequence (Q9ERK7 whole entry): as the sequence (Q9ERK7 whole entry) above
T3 sequence (Q9R0W9 whole entry): as the sequence (Q9R0W9 whole entry) above

[11] = Selectivity ratio, ratio of EC50 for alpha3beta4* nAChR in mouse to EC50 for alpha6beta2*nAChR in mouse
[12] = biological target: Neuronal acetylcholine receptor subunit alpha-4/alpha-6/beta-2/beta-3 (Mus musculus, UniProt Q9ERK7+O70174+Q9R0W9+Q8BMN3); experiment: as §1; assay type: subcellular, Brain
Chain of Neuronal acetylcholine receptor subunit alpha-4/alpha-6/beta-2/beta-3 (Mus musculus, UniProt Q9ERK7+O70174+Q9R0W9+Q8BMN3) (Q9ERK7 whole entry): as the sequence (Q9ERK7 whole entry) above
Chain of Neuronal acetylcholine receptor subunit alpha-4/alpha-6/beta-2/beta-3 (Mus musculus, UniProt Q9ERK7+O70174+Q9R0W9+Q8BMN3) (O70174 whole entry): as the sequence (O70174 whole entry) above
Chain of Neuronal acetylcholine receptor subunit alpha-4/alpha-6/beta-2/beta-3 (Mus musculus, UniProt Q9ERK7+O70174+Q9R0W9+Q8BMN3) (Q9R0W9 whole entry): as the sequence (Q9R0W9 whole entry) above
Chain of Neuronal acetylcholine receptor subunit alpha-4/alpha-6/beta-2/beta-3 (Mus musculus, UniProt Q9ERK7+O70174+Q9R0W9+Q8BMN3) (Q8BMN3 whole entry): as the sequence (Q8BMN3 whole entry) above

[13] = Selectivity ratio, ratio of EC50 for alpha3beta4* nAChR in mouse to Ki for alpha6beta2*nAChR in mouse
[14] = biological target: T3, Neuronal acetylcholine receptor subunit alpha-6/beta-2; experiment: Inhibition of mouse alpha6alpha4beta3beta2 nAChR; assay type: protein-complex assay
[15] = Selectivity ratio, ratio of EC50 for alpha3beta4* nAChR in mouse to Ki for alpha4beta2*nAChR in mouse

**Q.** With c1cncc(C2CC3CCN2CC3)c1 (stereo not given) as the compound, how does the Emax [1] read?
**A.** 29%

**Q.** With C(=C\[C@@H]1CCNC1)/c1cccnc1.O=C(O)C(F)(F)F as the compound, how does the pKi [2] read?
**A.** 7.96

**Q.** And the “Ratio EC50” value [3]?
**A.** 3.6

**Q.** What about the Emax [4] of the same compound?
**A.** 66%

**Q.** What about the pEC50 [5] of the same compound?
**A.** 5.36

**Q.** What about the pEC50 [6] of the same compound?
**A.** 4.80

**Q.** And the pKi [7]?
**A.** 5.50

**Q.** And the Emax [8]?
**A.** 58%

**Q.** What about the pEC50 [9] of the same compound?
**A.** 6.10

**Q.** And the Emax [1]?
**A.** 109%

**Q.** And the pKi [10]?
**A.** 6.74

**Q.** What about the “Ratio EC50” value [11] of the same compound?
**A.** 20

**Q.** With C(#C[C@H]1CCCN1)c1cncnc1 as the compound, how does the pKi [2] read?
**A.** 7.52

**Q.** What about the Emax [4] of the same compound?
**A.** 134%

**Q.** And the pEC50 [5]?
**A.** 5.49

**Q.** And the pEC50 [6]?
**A.** 4.47

**Q.** What about the pKi [7] of the same compound?
**A.** 5.24

**Q.** And the Emax [8]?
**A.** 74%

**Q.** And the pEC50 [9]?
**A.** 5.92

**Q.** And the Emax [1]?
**A.** 64%

**Q.** What about the pKi [10] of the same compound?
**A.** 6.47

**Q.** With CN1C2C=C(c3cccnc3)CC1CC2.Cl.Cl (stereo not given) as the compound, how does the pKi [2] read?
**A.** 8.01

**Q.** And the “Ratio EC50” value [3]?
**A.** 6.2

**Q.** What about the Emax [4] of the same compound?
**A.** 50%

**Q.** And the pEC50 [5]?
**A.** 5.47

**Q.** And the pEC50 [6]?
**A.** 4.68

**Q.** What about the pKi [7] of the same compound?
**A.** 5.68

**Q.** What about the Emax [8] of the same compound?
**A.** 71%

**Q.** And the pEC50 [9]?
**A.** 6.70

**Q.** And the Emax [1]?
**A.** 75%

**Q.** And the pKi [10]?
**A.** 7.26

**Q.** And the “Ratio EC50” value [11]?
**A.** 105

**Q.** With CNCC/C=C/c1cccnc1.O=C(O)[C@@H](O)[C@H](O)[C@H](O)[C@@H](O)C(=O)O as the compound, how does the pKi [2] read?
**A.** 7.60

**Q.** What about the “Ratio EC50” value [3] of the same compound?
**A.** 26

**Q.** What about the Emax [4] of the same compound?
**A.** 0%

**Q.** And the pEC50 [5]?
**A.** 5.08

**Q.** And the pEC50 [6]?
**A.** 3.66

**Q.** And the pKi [7]?
**A.** < 5.00

**Q.** And the Emax [8]?
**A.** 45%

**Q.** What about the EC50 [12] of the same compound?
**A.** Not Active

**Q.** What about the Emax [1] of the same compound?
**A.** 122%

**Q.** What about the pKi [10] of the same compound?
**A.** 5.81

**Q.** With O=C(O)C(F)(F)F.c1ncc(C2CC3CCN2CC3)cn1 (stereo not given) as the compound, how does the pKi [2] read?
**A.** 8.74

**Q.** What about the “Ratio EC50” value [3] of the same compound?
**A.** 5.3

**Q.** And the Emax [4]?
**A.** 104%

**Q.** And the pEC50 [5]?
**A.** 6.35

**Q.** What about the pEC50 [6] of the same compound?
**A.** 5.62

**Q.** And the pKi [7]?
**A.** 5.96

**Q.** And the Emax [8]?
**A.** 95%

**Q.** And the pEC50 [9]?
**A.** 7.05

**Q.** What about the Emax [1] of the same compound?
**A.** 43%

**Q.** What about the pKi [10] of the same compound?
**A.** 8.10

**Q.** And the “Ratio EC50” value [11]?
**A.** 26.7

**Q.** What does the source list for CNCC/C=C/c1cncnc1.O=C(O)[C@@H](O)[C@H](O)[C@H](O)[C@@H](O)C(=O)O?
**A.** pKi [2]: 7.16; Ratio EC50 [3]: 1.6; Emax [4]: 80%; pEC50 [5]: 5.23; pEC50 [6]: 5.02; pKi [7]: < 5.00; Emax [8]: 4%; pEC50 [9]: 4.43; Emax [1]: 73%; pKi [10]: 5.97; Ratio EC50 [11]: 0.26

**Q.** Which results are given for C(#C[C@H]1CCCN1)c1cccnc1.O=C(O)[C@@H](O)[C@H](O)[C@H](O)[C@@H](O)C(=O)O?
**A.** pKi [2]: 7.70; Ratio EC50 [3]: 0.4; Emax [4]: 42%; pEC50 [5]: 4.89; pEC50 [6]: 5.25; pKi [7]: 6.13; Emax [8]: 81%; pEC50 [9]: 6.15; Emax [1]: 120%; pKi [10]: 6.62; Ratio EC50 [11]: 8

**Q.** Which results are given for O=C(O)C(F)(F)F.c1ncc(CC2CC3CCN2CC3)cn1 (stereo not given)?
**A.** pKi [2]: 7.23; Ratio [13]: 11.2; Imax [4]: 91%; pKi [14]: 5.60; pEC50 [6]: 4.55; pKi [7]: 5.59; Ratio [15]: 87.5; Emax [8]: 106%; Imax [1]: 92%; pKi [10]: 6.94

**Q.** For C(#C[C@H]1CCCN1)c1cncnc1.O=C(O)[C@@H](O)[C@H](O)[C@H](O)[C@@H](O)C(=O)O, which “Ratio EC50” value [3] is on record?
**A.** 10.6

**Q.** What about the “Ratio EC50” value [11] of the same compound?
**A.** 28

**Q.** Which Imax [4] does the source give for c1cncc(CC2CC3CCN2CC3)c1 (stereo not given) here?
**A.** 96%

**Q.** With C(=C\[C@@H]1CCNC1)/c1cncnc1.O=C(O)[C@@H](O)[C@H](O)[C@H](O)[C@@H](O)C(=O)O as the compound, how does the pKi [2] read?
**A.** 7.62

**Q.** What about the “Ratio EC50” value [3] of the same compound?
**A.** 8.5

**Q.** What about the Emax [4] of the same compound?
**A.** 48%

**Q.** What about the pEC50 [5] of the same compound?
**A.** 4.72

**Q.** What about the pEC50 [6] of the same compound?
**A.** 3.79

**Q.** What about the pKi [7] of the same compound?
**A.** < 5.00

**Q.** What about the Emax [8] of the same compound?
**A.** 97%

**Q.** And the pEC50 [9]?
**A.** 6.28

**Q.** And the Emax [1]?
**A.** 133%

**Q.** What about the pKi [10] of the same compound?
**A.** 6.49

**Q.** What about the “Ratio EC50” value [11] of the same compound?
**A.** 304

**Q.** With CN1C2C=C(c3cncnc3)CC1CC2.O=C(O)C(F)(F)F (stereo not given) as the compound, how does the pKi [2] read?
**A.** 8.92

**Q.** And the “Ratio EC50” value [3]?
**A.** 22.7

**Q.** What about the Emax [4] of the same compound?
**A.** 77%

**Q.** And the pEC50 [5]?
**A.** 5.74

**Q.** What about the pEC50 [6] of the same compound?
**A.** 4.39

**Q.** And the pKi [7]?
**A.** 5.04

**Q.** What about the Emax [8] of the same compound?
**A.** 35%

**Q.** And the pEC50 [9]?
**A.** 7.00

**Q.** And the Emax [1]?
**A.** 45%

**Q.** What about the pKi [10] of the same compound?
**A.** 7.77

**Q.** And the “Ratio EC50” value [11]?
**A.** 410
